In patent publication US11117894B2, “Pyridopyrazine compounds and uses thereof” (CITY OF HOPE, priority 2017, dated 2021):

Experiments:
A2058 melanoma = test: MTS cell viability assay, A2058 melanoma cell line; assay type: cell-based; settings: 48 h; for Viability % CTL A2058 melanoma: Table 1, screened at 10 μM; for Viability (% CTL) at 10 μM A2058 melanoma: Table 2, 10 μM; for IC50: Homo sapiens, MTS; for Viability % CTL A2058 melanoma (10 μM): Table 4, 10 μM
Protocol: (§1) MTS assays were performed for cell viability. To determine if novel pyridopyrazine derivatives have antitumor activities, compounds were screened at 10 μM final concentration with A2058 melanoma and DU145 prostate cancer cell lines. Compounds #16 and #17 were selected to determine IC50 values against lung cancer cell lines, including A549, DMS273, H69, H513, H2461, DMS114, H358 and H2596. In this assay, cells (5000/well) were seeded in 96-well plates, incubated overnight at 37° C. in 5% CO2, and exposed to 10 μM of compounds or in a dose-dependent manner for 48 h. After 48 h treatment with compounds, MTS dye (20 μL/well) was added to 96-well plates. Viable cell numbers were determined by tetrazolium conversion to its formazan dye. Absorbance was measured at 490 nm using an automated ELISA plate reader. Dimethyl sulfoxide (DMSO) was used as the vehicle control. Each experiment was conducted in triplicate. IC50 values were determined using CalcuSyn software (Biosoft).

DU145 prostate cancer = test: MTS cell viability assay, DU145 prostate cancer cell line; assay type: cell-based; settings: 48 h; for Viability % CTL DU145 prostate: Table 1, screened at 10 μM; for Viability (% CTL) at 10 μM DU145 prostate: Table 2; for IC50: Homo sapiens, DU-145, DU145 prostate cancer, MTS; for Viability % CTL DU145 prostate (10 μM ): Table 4
Protocol: as §1

SMILES | Viability % CTL A2058 melanoma (A2058 melanoma) | Viability % CTL DU145 prostate (DU145 prostate cancer) | further results
Cc1nc2nccnc2cc1NC(=O)c1ccccc1 [Compound 06A] | 85 % CTL | 94 % CTL | 
COc1cc(C(=O)Nc2cc3nccnc3nc2C)cc(OC)c1OC [Compound 07A] | 82 % CTL | 122 % CTL | 
Cc1nc2nc(Nc3ccccc3)cnc2cc1NC(=O)c1ccccc1 [Compound 8, N-(6-Methyl-3-(phenylamino)pyrido[2,3-b]pyrazin-7-yl)benzamide] |  |  | Viability (% CTL) at 10 μM A2058 melanoma (A2058 melanoma): 81 % CTL; Viability (% CTL) at 10 μM DU145 prostate (DU145 prostate cancer): 90 % CTL
Cc1ccc(C(=O)Nc2cc3nccnc3nc2C)cc1 [Compound 08A] | 80 % CTL | 96 % CTL | 
Cc1ccc(C(=O)Nc2cc3ncc(Nc4ccccc4)nc3nc2C)cc1 [Compound 9, 4-Methyl-N-(6-methyl-3-(phenylamino)pyrido[2,3-b]pyrazin-7-yl)benzamide] |  |  | Viability (% CTL) at 10 μM A2058 melanoma (A2058 melanoma): 66 % CTL; Viability (% CTL) at 10 μM DU145 prostate (DU145 prostate cancer): 82 % CTL
Cc1nc2nccnc2cc1NC(=O)c1cccc(C(F)(F)F)c1 [Compound 09A] | 74 % CTL | 103 % CTL | 
Cc1nc2nc(Nc3ccccc3)cnc2cc1NC(=O)c1ccc([N+](=O)[O-])cc1 [Compound 10, N-(6-Methyl-3-(phenylamino)pyrido[2,3-b]pyrazin-7-yl)-4-nitrobenzamide] |  |  | Viability (% CTL) at 10 μM A2058 melanoma (A2058 melanoma): 86 % CTL; Viability (% CTL) at 10 μM DU145 prostate (DU145 prostate cancer): 97 % CTL
Cc1nc2nccnc2cc1NC(=O)c1ccc(Br)cc1F [Compound 10A] | 93 % CTL | 95 % CTL | 
COc1cc(C(=O)Nc2cc3ncc(Nc4ccccc4)nc3nc2C)cc(OC)c1OC [Compound 11, 3,4,5-Trimethoxy-N-(6-methyl-3-(phenylamino)pyrido[2,3-b]pyrazin-7-yl)benzamide] |  |  | Viability (% CTL) at 10 μM A2058 melanoma (A2058 melanoma): 83 % CTL; Viability (% CTL) at 10 μM DU145 prostate (DU145 prostate cancer): 105 % CTL
Cc1nc2nccnc2cc1NC(=O)c1ccc([N+](=O)[O-])cc1 [Compound 11A] | 87 % CTL | 106 % CTL | 
Cc1nc2nc(Nc3ccccc3)cnc2cc1NC(=O)c1cccc(C(F)(F)F)c1 [Compound 12, N-(6-Methyl-3-(phenylamino)pyrido[2,3-b]pyrazin-7-yl)-3-(trifluoromethyl)benzamide] | 69 % CTL | 93 % CTL | 
Cc1nc2nccnc2cc1NC(=O)c1ccc(N)cc1 [Compound 12A] | 84 % CTL | 99 % CTL | 
Cc1nc2nccnc2cc1NC(=O)CN1CCN(C)CC1 [Compound 13A] | 94 % CTL | 86 % CTL | 
Cc1nc2nc(Nc3ccccc3)cnc2cc1NC(=O)c1ccc(NC(=O)Nc2ccccc2)cc1 [Compound 14, N-(6-Methyl-3-(phenylamino)pyrido[2,3-b]pyrazin-7-yl)-4-(3-phenylureido)benzamide] |  |  | Viability (% CTL) at 10 μM A2058 melanoma (A2058 melanoma): 75 % CTL; Viability (% CTL) at 10 μM DU145 prostate (DU145 prostate cancer): 80 % CTL
Cc1nc2nccnc2cc1NC(=O)CN(C)C [Compound 14A] | 106 % CTL | 101 % CTL | 
Cc1nc2nc(Nc3ccccc3)cnc2cc1NC(=O)Nc1ccccc1 [Compound 15, 1-(6-Methyl-3-(phenylamino)pyrido[2,3-b]pyrazin-7-yl)-3-phenylurea] |  |  | Viability (% CTL) at 10 μM A2058 melanoma (A2058 melanoma): 5 % CTL; Viability (% CTL) at 10 μM DU145 prostate (DU145 prostate cancer): 4 % CTL
Cc1nc2nccnc2cc1NC(=O)Nc1ccccc1 [Compound 15A] | 73 % CTL | 104 % CTL | 
Cc1nc2nc(Sc3ccccc3)cnc2cc1NC(=O)c1cccc(C(F)(F)F)c1 [Compound 15B] | 61 % CTL | 113 % CTL | 
Cc1nc2nccnc2cc1NC(=O)Nc1ccc(F)c(Cl)c1 [Compound 16A] | 96 % CTL | 99 % CTL | 
Cc1nc2nc(Sc3ccccc3)cnc2cc1NC(=O)c1ccccc1C(F)(F)F [Compound 16B] | 84 % CTL | 120 % CTL | 

SMILES | Viability % CTL A2058 melanoma (A2058 melanoma) | Viability % CTL DU145 prostate (DU145 prostate cancer) | further results
Cc1nc2nccnc2cc1NC(=O)Nc1cccc(C(F)(F)F)c1 [Compound 17A] | 79 % CTL | 98 % CTL | 
Cc1nc2nc(Sc3ccccc3)cnc2cc1NC(=O)Nc1cccc(C(F)(F)F)c1 [Compound 17B] | 56 % CTL | 101 % CTL | 
CSc1ccc(NC(=O)Nc2cc3ncc(Nc4ccccc4)nc3nc2C)cc1 [Compound 18, 1-(6-Methyl-3-(phenylamino)pyrido[2,3-b]pyrazin-7-yl)-3-(4-(methylthio)phenyl)urea] |  |  | IC50 (A2058 melanoma): 1.3 µM; Viability % CTL A2058 melanoma (10 μM) (A2058 melanoma): 7 % CTL; IC50 (DU145 prostate cancer): 2.4 µM; Viability % CTL DU145 prostate (10 μM ) (DU145 prostate cancer): 6 % CTL
Cc1nc2nccnc2cc1NC(=S)NCc1ccccc1 [Compound 18A] | 74 % CTL | 89 % CTL | 
Cc1nc2nc(Sc3ccccc3)cnc2cc1NC(=O)Nc1ccc(F)c(Cl)c1 [Compound 18B] | 83 % CTL | 124 % CTL | 
Cc1nc2nc(Nc3ccccc3)cnc2cc1NC(=O)Nc1ccc(Cl)cc1Cl [Compound 19, 1-(2,4-Dichlorophenyl)-3-(6-methyl-3-(phenylamino)pyrido[2,3-b]pyrazin-7-yl)urea] |  |  | Viability % CTL A2058 melanoma (10 μM) (A2058 melanoma): 60 % CTL; Viability % CTL DU145 prostate (10 μM ) (DU145 prostate cancer): 50 % CTL
Cc1ccc(S(=O)(=O)Nc2cc3nccnc3nc2C)cc1 [Compound 19A] | 59 % CTL | 122 % CTL | 
CSc1ccc(NC(=O)Nc2cc3ncc(Sc4ccccc4)nc3nc2C)cc1 [Compound 19B] | 89 % CTL | 113 % CTL | 
Cc1nc2nc(Sc3ccccc3)cnc2cc1NC(=O)Nc1ccc(F)c([N+](=O)[O-])c1 [Compound 20B] | 84 % CTL | 89 % CTL | 
Cc1nc2nc(Nc3ccccc3)cnc2cc1NC(=O)CN(C)C [Compound 24E] |  |  | Viability (% CTL) at 10 μM A2058 melanoma (A2058 melanoma): 84 % CTL; Viability (% CTL) at 10 μM DU145 prostate (DU145 prostate cancer): 102 % CTL
Cc1nc2nc(Nc3ccccc3)cnc2cc1NC(=O)CN1CCN(C)CC1 [Compound 25E] |  |  | Viability (% CTL) at 10 μM A2058 melanoma (A2058 melanoma): 85 % CTL; Viability (% CTL) at 10 μM DU145 prostate (DU145 prostate cancer): 83 % CTL
Cc1nc2nc(Nc3ccccc3)cnc2cc1NC(=O)CNc1ccccc1 [Compound 26E] |  |  | Viability (% CTL) at 10 μM A2058 melanoma (A2058 melanoma): 93 % CTL; Viability (% CTL) at 10 μM DU145 prostate (DU145 prostate cancer): 85 % CTL
CCN(CC)CCNCC(=O)Nc1cc2ncc(Nc3ccccc3)nc2nc1C [Compound 27E] |  |  | Viability (% CTL) at 10 μM A2058 melanoma (A2058 melanoma): 85 % CTL; Viability (% CTL) at 10 μM DU145 prostate (DU145 prostate cancer): 82 % CTL
CCOC(=O)c1ccc(Nc2cnc3cc(NC(=O)Nc4ccc(F)c(Cl)c4)c(C)nc3n2)cc1 [Compound 28, Ethyl 4-((7-(3-(3-chloro-4-fluorophenyl)ureido)-6-methylpyrido[2,3-b]pyrazin-3-yl)amino)benzoate] |  |  | IC50 (A2058 melanoma): 7.1 µM; Viability % CTL A2058 melanoma (10 μM) (A2058 melanoma): 35 % CTL; IC50 (DU145 prostate cancer): 9.9 µM; Viability % CTL DU145 prostate (10 μM ) (DU145 prostate cancer): 40 % CTL
CCOC(=O)c1ccc(Nc2cnc3cc(NC(=O)Nc4cccc(C(F)(F)F)c4)c(C)nc3n2)cc1 [Compound 29, Ethyl 4-((6-methyl-7-(3-(3-(trifluoromethyl)phenyl)ureido)pyrido[2,3-b]pyrazin-3-yl)amino)benzoate] |  |  | IC50 (A2058 melanoma): 6.1 µM; Viability % CTL A2058 melanoma (10 μM) (A2058 melanoma): 37 % CTL; IC50 (DU145 prostate cancer): 12.8 µM; Viability % CTL DU145 prostate (10 μM ) (DU145 prostate cancer): 48 % CTL
CC(=O)Nc1cccc(Nc2cnc3cc(NC(=O)Nc4ccc(F)c(Cl)c4)c(C)nc3n2)c1 [Compound 30, N-(3-((7-(3-(3-Chloro-4-fluorophenyl)ureido)-6-methylpyrido[2,3-b]pyrazin-3-yl)amino)phenyl)acetamide] |  |  | Viability % CTL A2058 melanoma (10 μM) (A2058 melanoma): 118 % CTL; Viability % CTL DU145 prostate (10 μM ) (DU145 prostate cancer): 64 % CTL
CC(=O)Nc1cccc(Nc2cnc3cc(NC(=O)Nc4cccc(C(F)(F)F)c4)c(C)nc3n2)c1 [Compound 31, N-(3-((6-Methyl-7-(3-(3-(trifluoromethyl)phenyl)ureido)pyrido[2,3-b]pyrazin-3-yl)amino)phenyl)acetamide] |  |  | Viability % CTL A2058 melanoma (10 μM) (A2058 melanoma): 119 % CTL; Viability % CTL DU145 prostate (10 μM ) (DU145 prostate cancer): 62 % CTL
CC(=O)Nc1ccc(Nc2cnc3cc(NC(=O)Nc4ccc(F)c(Cl)c4)c(C)nc3n2)cc1 [Compound 32, N-(4-((7-(3-(3-Chloro-4-fluorophenyl)ureido)-6-methylpyrido[2,3-b]pyrazin-3-yl)amino)phenyl)acetamide] |  |  | Viability % CTL A2058 melanoma (10 μM) (A2058 melanoma): 65 % CTL; Viability % CTL DU145 prostate (10 μM ) (DU145 prostate cancer): 76 % CTL
CC(=O)Nc1ccc(Nc2cnc3cc(NC(=O)Nc4cccc(C(F)(F)F)c4)c(C)nc3n2)cc1 [Compound 33, N-(4-((6-Methyl-7-(3-(3-(trifluoromethyl)phenyl)ureido)pyrido[2,3-b]pyrazin-3-yl)amino)phenyl)acetamide] |  |  | Viability % CTL A2058 melanoma (10 μM) (A2058 melanoma): 109 % CTL; Viability % CTL DU145 prostate (10 μM ) (DU145 prostate cancer): 55 % CTL
